The results in this text go back to patent US20060089390A1, “3-benzoyl-2,4,5-substituted pyridine derivatives or salts thereof and bactericides containing the same” (Ishihara Sangyo Kaisha, Ltd., priority 2002, published 2006).

In data set [1] the test system is rice blast. The experiment in a line: whole plant or invertebrate. The format is in vivo, Rice (cultivar: Nihonbare). Particulars: Pyricularia oryzae, foliar, read-out: controlling effects as compared with non-treated cases (number of lesions).
In data set [2] the test system is cucumber powdery mildew. Kind of data set: Test on preventive effect against cucumber powdery mildew. Format: in vivo, Cucumber (cultivar: Suyo). Particulars: Cucumis sativus, foliar spray before inoculation, examined 6 to 11 days after inoculation, read-out: controlling effects as compared with non-treated cases (area of sporogony). How it is done:
Test on Preventive Effect Against Cucumber Powdery Mildew Cucumber (cultivar: […] After the drug solution dried, the cucumber was sprayed and inoculated with a conidiospore suspension of fungi of powdery mildew, and the cucumber was kept in a thermostatic chamber at 20° C. From 6 to 11 days after the inoculation, the area of sporogony was examined.

In data set [3] the test system is wheat powdery mildew. Kind of data set: Test on preventive effect against wheat powdery mildew. The format is in vivo, Wheat (cultivar: Norin-61-go). Particulars: Triticum aestivum, foliar spray before inoculation, examined 6 to 8 days after inoculation, read-out: controlling effects as compared with non-treated cases (area of sporogony). How it is done: Tests on Preventive Effect Against Wheat Powdery Mildew Wheat (cultivar: […] After the drug solution dried, the wheat was inoculated by spreading with conidiospore of fungi of powdery mildew, and the wheat was kept in a thermostatic chamber at 20° C. From 6 to 8 days after the inoculation, the area of sporogony was examined.

Data set [4] relates to cucumber powdery mildew. The experiment in a line: Test on rainfastness of effect against cucumber powdery mildew. The format is in vivo, Cucumber (cultivar: Suyo). Particulars: Cucumis sativus, topical, 500 gai/ha. On the procedure: Cucumber (cultivar: […] A day after the treatment, 10 mm/hr of artificial rainfall was applied for 1 hour. Together with seedlings not subjected to rainfall treatment (preventive), the cucumber was sprayed and inoculated with a conidiospore suspension of fungi of powdery mildew, and the cucumber was kept in a thermostatic chamber at 20° C. From 6 to 11 days after the inoculation, the number of lesions was examined, and the controlling rate was calculated by comparison with the non-treated cases. The results are shown in Table 5.

Where [5] appears, read: 10 mm/hr artificial rainfall for 1 hour a day after treatment, read-out: Controlling rate of cucumber powdery mildew (%) Rainfall.
The mark [6] stands for this setting: no rainfall treatment (preventive), read-out: Controlling rate of cucumber powdery mildew (%) Preventive.

As usually defined, the melting point is the temperature of the solid-liquid transition.

Like-named read-outs stand apart in the source and are kept apart here.

`CCc1c(Cl)cnc(OC)c1C(=O)c1c(C)cc(OC)c(OC)c1OC` [1-2, 3-(2,3,4-trimethoxy-6-methylbenzoyl)-5-chloro-4-ethyl-2-methoxypyridine]: the pest or weed control at 500 ppm in data set [1] was at least 90%. The pest or weed control at 125 ppm in data set [2] and in data set [3] was at least 90% in each case.

With `CCOc1cc(C(=O)c2c(OC)ncc(Cl)c2Cl)c(C)cc1OC` [1-4, 3-(5-ethoxy-4-methoxy-2-methylbenzoyl)-4,5-dichloro-2-methoxypyridine], the pest or weed control at 125 ppm in data set [2] and in data set [3] was at least 90% in each case.

Consider `CCOc1ncc(Cl)c(Br)c1C(=O)c1c(C)cc(OC)c(OC)c1OC` [1-5, 3-(2,3,4-trimethoxy-6-methylbenzoyl)-4-bromo-5-chloro-2-ethoxypyridine], for which the pest or weed control at 125 ppm in data set [2] and in data set [3] was at least 90% each time.

Consider `CCOc1ncc(Cl)c(C)c1C(=O)c1c(C)cc(OC)c(OC)c1OC` [1-6, 3-(2,3,4-trimethoxy-6-methylbenzoyl)-5-chloro-2-ethoxy-4-methylpyridine], for which, in data set [3], the pest or weed control at 125 ppm was at least 90%.

Turning to `CCOc1ncc(Br)c(Cl)c1C(=O)c1c(C)cc(OC)c(OC)c1OC` [1-7, 3-(2,3,4-trimethoxy-6-methylbenzoyl)-5-bromo-4-chloro-2-ethoxypyridine], the pest or weed control at 125 ppm in data set [2] and in data set [3] was at least 90% in each case.

As to `COc1cc(C)c(C(=O)c2c(OC)ncc(Cl)c2SC)c(OC)c1OC` [1-10, 3-(2,3,4-trimethoxy-6-methylbenzoyl)-5-chloro-2-methoxy-4-methylthiopyridine], the pest or weed control at 125 ppm in data set [2] and in data set [3] was at least 90% throughout.

Regarding `COc1cc(C)c(C(=O)c2c(OC)ncc(Br)c2Br)c(OC)c1OC` [1-12, 3-(2,3,4-trimethoxy-6-methylbenzoyl)-4,5-dibromo-2-methoxypyridine], the pest or weed control at 125 ppm in data set [2] and in data set [3] was at least 90% each time. Further, the pest or weed control at 500 g/ha is 68% in data set [4] (setting [5]) and 100% in data set [4] (setting [6]).

For the compound `COc1cc(C)c(C(=O)c2c(OC)ncc(C)c2Br)c(OC)c1OC` [1-13, 3-(2,3,4-trimethoxy-6-methylbenzoyl)-4-bromo-2-methoxy-5-methylpyridine], the pest or weed control at 125 ppm in data set [2] and in data set [3] was at least 90% throughout.

`COc1cc(C)c(C(=O)c2c(OC)ncc(Br)c2C(F)(F)F)c(OC)c1OC` [1-14, 3-(2,3,4-trimethoxy-6-methylbenzoyl)-5-bromo-4-trifluoromethyl-2-methoxypyridine]: the pest or weed control at 125 ppm in data set [2] and in data set [3] was at least 90% in each case. For the same compound, the pest or weed control at 500 g/ha in data set [4] (setting [5]) and in data set [4] (setting [6]) was 100% throughout.

For the compound `COc1cc(C)c(C(=O)c2c(Cl)ncc(I)c2Cl)c(OC)c1OC` [1-17, 3-(2,3,4-trimethoxy-6-methylbenzoyl)-2,4-dichloro-5-iodopyridine], in data set [1], the pest or weed control at 500 ppm was at least 90%. Besides, the pest or weed control at 125 ppm in data set [3] was at least 90%.

Consider `COc1cc(C)c(C(=O)c2c(F)ncc(C)c2I)c(OC)c1OC` [1-18, 3-(2,3,4-trimethoxy-6-methylbenzoyl)-2-fluoro-4-iodo-5-methylpyridine], for which the melting point was in the range of 140 to 141 °C. Besides, the pest or weed control at 125 ppm in data set [3] was at least 90%.

In turn, `COc1cc(C)c(C(=O)c2c(F)ncc(C)c2C)c(OC)c1OC` [1-19, 3-(2,3,4-trimethoxy-6-methylbenzoyl)-2-fluoro-4,5-dimethylpyridine] displayed a melting point of 91 to 92 °C. Also, the pest or weed control at 125 ppm in data set [3] was at least 90%.

`CCOc1ncc(C)c(C)c1C(=O)c1c(C)cc(OC)c(OC)c1OCC` [1-21, 3-(2-ethoxy-3,4-dimethoxy-6-methylbenzoyl)-2-ethoxy-4,5-dimethylpyridine]: the pest or weed control at 125 ppm in data set [2] and in data set [3] was at least 90% throughout.

On to `COc1cc(C)c(C(=O)c2c(SC)ncc(C)c2C)c(OC)c1OC` [1-22, 3-(2,3,4-trimethoxy-6-methylbenzoyl)-4,5-dimethyl-2-methylthiopyridine], for which the pest or weed control at 500 ppm in data set [1] is at least 90%. The pest or weed control at 125 ppm in data set [2] and in data set [3] was at least 90% throughout.

Turning to `COc1cc(C)c(C(=O)c2c(OC)ncc(Br)c2Cl)c(OC)c1OC` [1-23, 3-(2,3,4-trimethoxy-6-methylbenzoyl)-5-bromo-4-chloro-2-methoxypyridine], the pest or weed control at 500 ppm in data set [1] is at least 90%. The pest or weed control at 125 ppm in data set [2] and in data set [3] was at least 90% throughout. Further, the pest or weed control at 500 g/ha in data set [4] (setting [5]) and in data set [4] (setting [6]) was 100% in each case.

As to `COc1cc(C)c(C(=O)c2c(OC)ncc(C)c2Cl)c(OC)c1OC` [1-24, 3-(2,3,4-trimethoxy-6-methylbenzoyl)-4-chloro-2-methoxy-5-methylpyridine], the pest or weed control at 500 ppm in data set [1] was at least 90%. Also, the pest or weed control at 125 ppm in data set [2] and in data set [3] was at least 90% throughout. Besides, the pest or weed control at 500 g/ha amounted to 85% in data set [4] (setting [5]) and 100% in data set [4] (setting [6]).

`COc1cc(C)c(C(=O)c2c(OC)ncc(Br)c2C)c(OC)c1OC` [1-36, 3-(2,3,4-trimethoxy-6-methylbenzoyl)-5-bromo-2-methoxy-4-methylpyridine]: the pest or weed control at 125 ppm in data set [2] and in data set [3] was at least 90% each time.

`COc1cc(C)c(C(=O)c2c(OC)cnc(Cl)c2C)c(OC)c1OC` [2-1, 4-(2,3,4-trimethoxy-6-methylbenzoyl)-2-chloro-5-methoxy-3-methylpyridine, reference compound]: the pest or weed control at 125 ppm in data set [2] and in data set [3] was at least 90% in each case. The pest or weed control at 500 g/ha was 0% in data set [4] (setting [5]) and 100% in data set [4] (setting [6]).

On to `COc1cc(C)c(C(=O)c2c(OC)cnc(C)c2C(F)(F)F)c(OC)c1OC` [2-2, 4-(2,3,4-trimethoxy-6-methylbenzoyl)-3-trifluoromethyl-5-methoxy-2-methylpyridine, reference compound], for which the pest or weed control at 125 ppm in data set [2] and in data set [3] was at least 90% in each case. Also, the pest or weed control at 500 g/ha in data set [4] (setting [5]) was determined as 35%; in data set [4] (setting [6]), 100%.

For `COc1cc(C)c(C(=O)c2c(OC)cnc(Br)c2C)c(OC)c1OC` [2-3, 4-(2,3,4-trimethoxy-6-methylbenzoyl)-2-bromo-5-methoxy-3-methylpyridine, reference compound], the pest or weed control at 500 ppm in data set [1] is at least 90%. In addition, the pest or weed control at 125 ppm in data set [2] and in data set [3] was at least 90% each time. In addition, the pest or weed control at 500 g/ha worked out at 0% in data set [4] (setting [5]) and 100% in data set [4] (setting [6]).

As to `COc1cc(C)c(C(=O)c2c(OC)cnc(C)c2Cl)c(OC)c1OC` [2-4, 4-(2,3,4-trimethoxy-6-methylbenzoyl)-3-chloro-5-methoxy-2-methylpyridine, reference compound], the values for the pest or weed control at 500 g/ha in data set [4] (setting [5]) and in data set [4] (setting [6]) were 35% and 92.5%, respectively. Moreover, the pest or weed control at 125 ppm in data set [3] is at least 90%.

For the compound `COc1cc(C)c(C(=O)c2c(OC)ccnc2OC)c(OC)c1OC` [2-5, 3-(2,3,4-trimethoxy-6-methylbenzoyl)-2,4-dimethoxypyridine, reference compound], the pest or weed control at 500 g/ha was 0% in data set [4] (setting [5]) and 95% in data set [4] (setting [6]). Moreover, the pest or weed control at 125 ppm in data set [3] is at least 90%.

`COc1cc(C)c(C(=O)c2c(OC)cnc(Cl)c2Cl)c(OC)c1OC` [2-6, 4-(2,3,4-trimethoxy-6-methylbenzoyl)-2,3-dichloro-5-methoxypyridine, reference compound]: the pest or weed control at 125 ppm in data set [2] and in data set [3] was at least 90% in each case. Also, the values for the pest or weed control at 500 g/ha in data set [4] (setting [5]) and in data set [4] (setting [6]) were 0% and 90%, respectively.

As for `COc1cc(C)c(C(=O)c2c(OC)ncc(Cl)c2C)c(OC)c1OC` [Compound No. 1-35, 3-(2,3,4-trimethoxy-6-methylbenzoyl)-5-chloro-2-methoxy-4-methylpyridine], in data set [1], the pest or weed control at 500 ppm was at least 90%. Besides, the pest or weed control at 125 ppm in data set [2] and in data set [3] was at least 90% throughout. Further, the pest or weed control at 500 g/ha in data set [4] (setting [5]) and in data set [4] (setting [6]) was 100% in each case.

Regarding `COc1cc(C)c(C(=O)c2c(OC)ncc(C)c2C(F)(F)F)c(OC)c1OC` [Compound No. 1-37, 3-(2,3,4-trimethoxy-6-methylbenzoyl)-4-trifluoromethyl-2-methoxy-5-methylpyridine], the pest or weed control at 125 ppm in data set [2] and in data set [3] was at least 90% in each case. Also, the pest or weed control at 500 g/ha in data set [4] (setting [5]) and in data set [4] (setting [6]) was 100% in each case.
